Laboratory results published in patent publication US6545053B1, “Tricyclic compounds and drug compositions containing same” (Asahi Kasei Kogyo Kabushiki Kaisha, priority 1996, dated 2003).
Counter-ions that a name gives are not always drawn. Like-named read-outs stand apart in the source and are kept apart here.

Molecular target: T1, human β3 (Homo sapiens, UniProt P13945)
T1 construct: And then full length of human β3 gene was cloned using this fragment as a probe; expressed in transfected cells; host or cells: CHO cells (Chinese hamster ovary), pcDNA3 vector
T1 sequence (P13945 whole entry, the tested form may be a part): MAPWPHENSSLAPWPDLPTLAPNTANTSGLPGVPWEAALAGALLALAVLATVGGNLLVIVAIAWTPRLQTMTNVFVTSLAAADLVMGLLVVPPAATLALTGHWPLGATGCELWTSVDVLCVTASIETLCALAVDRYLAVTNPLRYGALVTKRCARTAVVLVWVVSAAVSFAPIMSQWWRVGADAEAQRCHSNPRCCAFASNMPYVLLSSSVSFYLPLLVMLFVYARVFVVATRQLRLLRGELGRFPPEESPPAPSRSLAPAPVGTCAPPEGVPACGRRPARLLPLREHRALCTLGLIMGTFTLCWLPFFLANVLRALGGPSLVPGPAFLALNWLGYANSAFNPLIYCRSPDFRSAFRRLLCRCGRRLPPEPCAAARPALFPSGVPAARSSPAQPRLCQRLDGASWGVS
Experiment: Human β3-agonist activity (cAMP in CHO cells transfected with human β3 gene)
Assay type: cell-based
Details: for Emax: CHO, read-out: Intrinsic activity (%)
Protocol: Human β3-agonist Activity
Human β3-agonist activity was examined using CHO cells (chinese hamster ovarian cells) to which pcDNA3 (in vitrogen) cells inserted human β3 gene was transfected. Human β3 fragment was obtained by PCR using human fat tissue cDNA (supplied from Clontech) with a β3 primer [Krief et al, J. Clin. Invest.
The cells were cultured in a HAM F-12 medium containing 10% of fetal bovine serum, 400 μg/ml of Geneticin (Gibco BRL). 100 U/ml penicillin and 100 μg/ml streptomycin. 5×10^5 cells were placed on a 6-well plate and cultured for 24 hours, after which the medium was changed to a HAM F-12 medium without serum and was kept for 2 hours. Each test compound was first dissolved in DMSO, and then diluted with a HAM F-12 medium containing 1 mM isobutylmethyl xanthine and 1 mM ascorbic acid. A 10-fold dilution in the range of 10^−5 to 10^−12 M was added into the cell.
After culturing for 30 minutes, culture medium was withdrawn, 0.5 ml of 1 N NaOH was added and was kept for 20 minutes. And then 0.5 ml of 1 N acetic acid was added with subsequent agitation and centrifugation. Finally the concentration of cAMP were analyzed using cAMP EIA KIT (Cayman). […] Isoprotelenol was purchased from Research Biochimicals International.

[1] = cAMP, CHO cells with human β3, read-out: ED50 (the source's name)

Structure (SMILES)	Emax [%]	EC50 [1] [nM]	EC50 [nM]	Intrinsic activity (%) (relative activity for isoproterenol, cAMP, CHO cells with human β3)
CN(Cc1ccccc1)S(=O)(=O)c1cc(C(O)CNCCOc2ccc3c(c2)[nH]c2ccccc23)ccc1O (racemic) [Example 83, (±)-N-Methyl-N-benzyl-[5-[2-[2-(9H-carbazol-2-yloxy)ethylamino]-1-hydroxyethyl]-2-hydroxy]benzenesulfonamide Hydrochloride]	79	740	–	–
CS(=O)(=O)Nc1cccc([C@@H](O)CNCCOc2ccc3c(c2)oc2ccccc23)c1 [Example 70, (R)-N-[3-[2-[2-(Dibenzofuran-3-yloxy)ethylamino]-1-hydroxyethyl]phenyl]methanesulfonamide Hydrochloride]	76	–	300	–
O=[N+]([O-])c1cc(C(O)CNCCOc2ccc3c(c2)[nH]c2ccccc23)ccc1O (racemic) [Example 18, (±)-2-[N-[2-(9H-Carbazol-2-yloxy)ethyl]amino]-1-(4-hydroxy-3-nitrophenyl)]ethanol Hydrochloride]	90	32	–	–
CN(C)S(=O)(=O)Nc1cccc(C(O)CNCCOc2ccc3c(c2)[nH]c2ccccc23)c1 (racemic) [Example 48, (±)-N′-[3-[2-[2-(9H-Carbazol-2-yloxy)ethylamino]-1-hydroxyethyl]phenyl]-N,N-dimethylsulfamide Hydrochloride]	73	–	220	–
CS(=O)(=O)Nc1cc([C@@H](O)CNCCOc2ccc3c(c2)[nH]c2ccccc23)ccc1F [Example 77, (R)-N-[5-[2-[2-(9H-Carbazol-2-yloxy)ethylamino]-1-hydroxyethyl]-2-fluorophenyl]methanesulfonamide Hydrochloride]	100	–	21	–
CCN(CC)S(=O)(=O)Nc1cc(C(O)CNCCOc2ccc3c(c2)[nH]c2ccccc23)ccc1O (racemic) [Example 88, (±)-N′-[5-[2-[2-(9H-Carbazol-2-yloxy)ethylamino]-1-hydroxyethyl]-2-hydroxyphenyl]-N,N-diethylsulfamide Hydrochloride]	86	–	390	–
C[C@H](COc1ccc2c(c1)[nH]c1ccccc12)NC[C@H](O)c1ccccc1 [Example 35, (R,R)-2-[N-[1-(9H-Carbazol-2-yloxy)propan-2-yl]amino]-1-phenylmethanol Hydrochloride]	90	520	–	–
CN(Cc1ccccc1)S(=O)(=O)Nc1cc(C(O)CNCCOc2ccc3c(c2)[nH]c2ccccc23)ccc1O (racemic) [Example 87, (±)-N′-[5-[2-[2-(9H-Carbazol-2-yloxy)ethylamino]-1-hydroxyethyl]-2-hydroxyphenyl]-N-methyl-N-benzylsulfamide Hydrochloride]	138	–	84	–
CS(=O)(=O)Nc1cc(C(O)CNCCOc2ccc3c(c2)sc2ccccc23)ccc1Cl (racemic) [Example 58, (±)-N-[5-[2-[2-(Dibenzothiophen-3-yloxy)ethylamino]-1-hydroxyethyl]-2-chlorophenyl]methanesulfonamide Hydrochloride]	91	–	550	–
CS(=O)(=O)Nc1cc(C(O)CNCCOc2ccc3c(c2)[nH]c2ccccc23)ccc1Br (racemic) [Example 85, (±)-N-[5-[2-[2-(9H-Carbazol-2-yloxy)ethylamino]-1-hydroxyethyl]-2-bromophenyl]methanesulfonamide]	70	56	–	–
CS(=O)(=O)Nc1cc([C@@H](O)CNCCOc2ccc3c(c2)[nH]c2ccccc23)ccc1Cl [Example 79, (R)-N-[5-[2-[2-(9H-Carbazol-2-yloxy)ethylamino]-1-hydroxyethyl]-2-chlorophenyl]methanesulfonamide Hydrochloride]	107	–	1.2	–
CS(=O)(=O)Nc1cc([C@@H](O)CNCCOc2ccc3c(c2)[nH]c2ccccc23)ccc1O [Example 12, (R)-N-[5-[2-[2-(9H-Carbazol-2-yloxy)ethylamino]-1-hydroxyethyl]-2-hydroxyphenyl]methanesulfonamide Hydrochloride]	113	–	0.14	–
CC(COc1ccc2c(c1)[nH]c1ccccc12)NCC(O)c1cccc(NS(C)(=O)=O)c1 (racemic) [Example 11, (±)-N-[3-[2-[[1-(9H-Carbazol-2-yloxy)propan-2R-yl]amino]-1-hydroxyethyl]phenyl]methanesulfonamide Hydrochloride]	95	26	–	–
CS(=O)(=O)Nc1cc(C(O)CNCCOc2ccc3c(c2)[nH]c2ccccc23)ccc1N (racemic) [Example 82, (±)-N-[5-[2-[2-(9H-Carbazol-2-yloxy)ethylamino]-1-hydroxyethyl]-2-aminophenyl]methanesulfonamide Hydrochloride]	130	–	2800	–
CS(=O)(=O)Nc1cccc([C@@H](O)CNCCOc2ccc3c(c2)[nH]c2ccccc23)c1 [Example 14, (R)-N-[3-[2-[2-(9H-Carbazol-2-yloxy)ethylamino]-1-hydroxyethyl]phenyl]methanesulfonamide Hydrochloride]	97	–	2.8	–
OC(CNCCOc1ccc2oc3ccccc3c2c1)c1ccccc1 (racemic) [Example 34, (±)-2-[N-[2-(Dibenzofuran-2-yloxy)ethyl]amino]-1-phenyl ethanol Hydrochloride]	37	–	4600	–
CNS(=O)(=O)c1cccc(C(O)CNCCOc2ccc3c(c2)[nH]c2ccccc23)c1 (racemic) [Example 16, (±)-N-methyl-3-[2-[2-(9H-Carbazol-2-yloxy)ethylamino]-1-hydroxyethyl]benzenesulfonamide Hydrochloride]	99	–	30	–
CS(=O)(=O)Nc1cc(C(O)CNCCOc2ccc3c(c2)[nH]c2ccccc23)ccc1OCc1ccccc1 (racemic) [Example 1, (±)-N-[5-[2-[2-(9H-Carbazol-2-yloxy)ethylamino]-1-hydroxyethyl]-2-benzyloxyphenyl]methanesulfonamide Hydrochloride]	80	–	340	–
CC(=O)Nc1ccc2c(c1)Cc1cc(OCCNCC(O)c3ccc(O)c(NS(=O)(=O)N(C)C)c3)ccc1-2 (racemic) [Example 45, (±)-N′-[5-[2-[2-(9H-7-Acetylaminofluoren-2-yloxy)ethylamino]-1-hydroxyethyl]-2-hydroxyphenyl]-N,N-dimethylsulfamide Hydrochloride]	89	17	–	–
CC(=O)Nc1ccc2c(c1)Cc1cc(OCCNCC(O)c3cccc(NS(C)(=O)=O)c3)ccc1-2 (racemic) [Example 10, (±)-N-[3-[2-[2-(9H-7-Acetylaminofluoren-2-yloxy)ethylamino]-1-hydroxyethyl]phenyl]methanesulfonamide Hydrochloride]	47	150	–	–
CS(=O)(=O)Nc1cc(C(O)CNCCOc2ccc3c(c2)oc2ccccc23)ccc1F (racemic) [Example 55, (±)-N-[5-[2-[2-(Dibenzofuran-3-yloxy)ethylamino]-1-hydroxyethyl]2-fluorophenyl]methanesulfonamide Hydrochloride]	76	–	230	–
CS(=O)(=O)Nc1cc([C@H](O)CNCCOc2ccc3c(c2)[nH]c2ccccc23)ccc1Cl [Example 80, (S)-N-[5-[2-[2-(9H-Carbazol-2-yloxy)ethylamino]-1-hydroxyethyl]-2-chlorophenyl]methanesulfonamide Hydrochloride]	110	–	57	–
Nc1cccc(C(O)CNCCOc2ccc3c(c2)[nH]c2ccccc23)c1 (racemic) [Example 47, (±)2-[N-[2-(9H-Carbazol-2-yloxy)ethyl]amino]-1-(3-aminophenyl)]ethanol Hydrochloride]	86	2000	–	–
CC(=O)Nc1ccc2[nH]c3cc(OCCNCC(O)c4cccc(NS(C)(=O)=O)c4)ccc3c2c1.Cl (racemic) [Example 68, (±)-N-[3-[2-[2-(9H-6-(Acetylamino)carbazol-2-yloxy]ethylamino]-1-hydroxyethyl]phenyl]methanesulfonamide Hydrochloride]	–	38	–	92
CS(=O)(=O)Nc1cc([C@H](O)CNCCOc2ccc3c(c2)[nH]c2ccccc23)ccc1O [Example 13, (S)-N-[5-[2-[2-(9H-Carbazol-2-yloxy)ethylamino]-1-hydroxyethyl]-2-hydroxyphenyl]methanesulfonamide Hydrochloride]	110	–	2.7	–
CN(C)S(=O)(=O)Nc1cc([C@@H](O)CNCCOc2ccc3c(c2)[nH]c2ccccc23)ccc1O [Example 73, (R)-N′-[5-[2-[2-(9H-Carbazol-2-yloxy)ethylamino]-1-hydroxyethyl]-2-hydroxyphenyl]-N,N-dimethylsulfamide Hydrochloride]	102	–	0.038	–
CNS(=O)(=O)c1cc(C(O)CNCCOc2ccc3c(c2)[nH]c2ccccc23)ccc1O (racemic) [Example 66, (±)-N-methyl-[5-[2-[2-(9H-Carbazol-2-yloxy)ethylamino]-1-hydroxyethyl]-2-hydroxy]benzenesulfonamide Hydrochloride]	106	72	–	–
OC(CNCCOc1ccc2c(c1)[nH]c1ccccc12)c1ccccc1F (racemic) [Example 28, (±)-2-[N-[2-(9H-Carbazol-2-yloxy)ethyl]amino]-1-(2-fluorophenyl)ethanol Hydrochloride]	97	–	1000	–
